“Also recorded” adds a separate entry of the source.
How the values were obtained:
[1] = molecular target: T1, Mouse TRPV3 (Mus musculus, UniProt Q8K424, A9V); assay: Whole-cell voltage clamp of TRPV3-expressing CHO cells (heat-evoked currents); format: cell-based
T1 construct: expressed in transfected cells
T1 sequence (Q8K424 1-791 A9V): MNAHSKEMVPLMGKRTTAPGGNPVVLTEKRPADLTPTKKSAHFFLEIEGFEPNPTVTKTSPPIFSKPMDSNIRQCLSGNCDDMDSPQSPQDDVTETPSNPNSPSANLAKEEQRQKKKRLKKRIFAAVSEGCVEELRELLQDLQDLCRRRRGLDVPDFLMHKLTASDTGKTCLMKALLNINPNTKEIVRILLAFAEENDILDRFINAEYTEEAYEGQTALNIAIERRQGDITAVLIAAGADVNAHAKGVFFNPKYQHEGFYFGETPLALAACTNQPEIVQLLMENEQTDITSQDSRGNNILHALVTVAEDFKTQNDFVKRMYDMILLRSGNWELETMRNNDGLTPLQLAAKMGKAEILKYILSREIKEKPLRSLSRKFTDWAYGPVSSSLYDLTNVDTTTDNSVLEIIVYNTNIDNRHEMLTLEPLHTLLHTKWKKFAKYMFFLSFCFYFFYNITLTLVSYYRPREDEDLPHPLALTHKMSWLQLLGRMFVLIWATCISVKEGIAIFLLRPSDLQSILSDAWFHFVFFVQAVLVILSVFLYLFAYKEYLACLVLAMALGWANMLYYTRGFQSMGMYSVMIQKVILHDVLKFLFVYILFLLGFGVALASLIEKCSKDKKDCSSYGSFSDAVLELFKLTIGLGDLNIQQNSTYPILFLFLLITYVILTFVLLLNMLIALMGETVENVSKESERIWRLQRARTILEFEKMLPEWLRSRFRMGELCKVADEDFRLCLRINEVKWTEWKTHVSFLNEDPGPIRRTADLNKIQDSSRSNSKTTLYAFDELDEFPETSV
Procedure: Given the high degree of homology of TRPV3 to TRPV family members, TRPV3 is tested to determine whether it responds to stimuli known to activate other closely-related family members. Accordingly, the effects of heat upon TRPV3 activity in mediating conductance are examined using whole-cell patch-clamp analysis of transfected CHO cell lines expressing TRPV3.
Mouse TRPV3 and rat TRPV1 cDNA are subcloned into pcDNA5 (Invitrogen) and transfected into CHO-K1/FRT cells using Fugene 6 (Roche). The transfected cells are selected by growth in MEM medium containing 200 μg/mL hygromycin (Gibco BRL). Populations are frozen at early passages and these stocks are used for further studies. Stable clones that express the mRNAs are identified by Northern blot analysis as well as Southern blotting to confirm integration site. Long-term cultures are subsequently maintained at 33° C.
TRPV3 expressing CHO cells are assayed electrophysiologically using whole cell voltage clamped techniques. Currents are recorded via pCLAMP8 suite of software via an Axopatch 200A and filtered at 5 kHz. Series-resistance compensation for all experiments is 80% using 2-5 MΩ resistance, fire-polished pipettes. Unless stated, the holding potential for most experiments is −60 mV, apart from the current-voltage relationship studies (2 second ramp from −100 to +80 mV). Cells are normally bathed in a medium containing (mM): NaCl, 140; KCl, 5; Glucose; 10, HEPES, 10; CaCl2, 2; MgCl2 1; titrated to pH 7.4 with NaOH, apart from the monovalent permeability studies, when NaCl is replaced by equimolar KCl or CsCl with the omission of KCl, 5 mM. For the divalent permeability studies, the solutions either contain 1 mM Ca^2+ or Mg^2+ and (mM) NaCl, 100; Glucose, 10; Hepes, 10; sucrose, 80 or 30 mM test ion, in the above solution minus sucrose. The experiments in calcium free media have no added CaCl2 with the addition of 100 μM EGTA. Pipette solution is always (mM) CsCl, 140; CaCl2, 1; EGTA, 10; HEPES, 10; MgATP, 2; titrated to pH7.4 with CsOH. For the permeability, ratios for the monovalent cations relative to Na (PX/PNa) are calculated as follows: PX/PNa=Eshift={RT/F}log(PX/PNa[X]O/[Na]O)

[2] = tested on: Non-transfected CHO cells; assay: Fura-2 calcium imaging of non-transfected CHO cells (control cells); format: cell-based, Chinese Hamster; conditions: tested up to 1 mM
[3] = molecular target: T2, mouse TRPM8 (Mus musculus, UniProt Q8R4D5); assay: Whole-cell voltage clamp of TRPM8-expressing CHO cells; format: cell-based
T2 construct: expressed in transfected cells
T2 sequence (Q8R4D5 whole entry): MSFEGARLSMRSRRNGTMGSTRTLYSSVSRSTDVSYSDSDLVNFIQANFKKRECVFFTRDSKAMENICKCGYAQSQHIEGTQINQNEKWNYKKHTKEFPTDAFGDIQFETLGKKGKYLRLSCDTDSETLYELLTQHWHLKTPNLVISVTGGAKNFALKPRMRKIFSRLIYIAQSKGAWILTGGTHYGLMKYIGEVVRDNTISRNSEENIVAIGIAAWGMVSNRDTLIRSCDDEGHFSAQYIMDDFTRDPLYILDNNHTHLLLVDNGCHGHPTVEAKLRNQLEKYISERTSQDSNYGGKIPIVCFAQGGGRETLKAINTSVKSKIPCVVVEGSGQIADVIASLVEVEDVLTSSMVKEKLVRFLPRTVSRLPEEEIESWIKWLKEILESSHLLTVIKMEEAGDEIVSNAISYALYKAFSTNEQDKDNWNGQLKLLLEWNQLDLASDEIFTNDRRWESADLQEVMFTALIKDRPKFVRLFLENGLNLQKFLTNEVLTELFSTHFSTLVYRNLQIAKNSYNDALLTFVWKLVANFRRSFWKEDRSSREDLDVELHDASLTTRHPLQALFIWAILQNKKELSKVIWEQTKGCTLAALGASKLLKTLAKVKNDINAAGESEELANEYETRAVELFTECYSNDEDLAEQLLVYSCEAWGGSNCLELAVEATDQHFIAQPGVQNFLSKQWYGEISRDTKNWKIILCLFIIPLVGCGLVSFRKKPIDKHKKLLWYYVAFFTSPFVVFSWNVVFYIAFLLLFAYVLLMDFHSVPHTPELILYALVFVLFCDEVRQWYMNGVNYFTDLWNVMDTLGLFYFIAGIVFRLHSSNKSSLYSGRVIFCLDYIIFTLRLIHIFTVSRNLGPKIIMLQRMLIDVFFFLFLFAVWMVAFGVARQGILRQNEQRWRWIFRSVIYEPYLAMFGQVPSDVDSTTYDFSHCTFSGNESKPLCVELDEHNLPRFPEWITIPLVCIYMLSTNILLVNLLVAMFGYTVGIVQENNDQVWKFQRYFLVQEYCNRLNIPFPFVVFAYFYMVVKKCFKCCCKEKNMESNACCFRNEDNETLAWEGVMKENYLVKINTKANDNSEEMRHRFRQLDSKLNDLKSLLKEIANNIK
Procedure: To investigate the membrane responses to cold and menthol, voltage clamp experiments are carried out on TRPM8 expressing cells which are prepared as described above.
Cells are plated onto poly-D-lysine coated cover-slips for recording purposes and recordings undertaken 18-24 hours later. Experiments are carried out at room temperature using whole-cell voltage clamp technique, with an Axopatch 2B amplifier, filtered at 5 kHz and pClamp suite of software (Axon Instruments). Series resistant compensation is 80% for all experiments, using 2-5 MΩ fire-polished pipettes. Recording solutions are as follows; pipette solution for all experiments is (mM) CsCl, 140; CaCl2, 1; EGTA, 10; HEPES, 10; MgATP, 2; titrated to pH 7.4 with CsOH. For menthol and cold activated currents the bath solution is (mM): NaCl, 140; KCl, 5; Glucose; 10, HEPES, 10; CaCl2, 2; MgCl2, 1; titrated to pH 7.4 with NaOH. Current-voltage relationships are used to evaluate reversal potentials with voltage ramps from −100 to +60 mV (2 second duration). For the permeability studies for the monovalent ions the NaCl in a simplified bath solution (mM): NaCl, 140; Glucose; 10, HEPES, 10; CaCl2, 2; MgCl2, 1, is substituted by either equimolar CsCl or KCl (titrated with CsOH or KOH). For calcium permeability estimates, the bath solutions contains (mM) NaCl, 100; Glucose, 10 mM; Hepes, 10 mM (titrated with NaOH) plus 1 or 30 mM CaCl2. Osmolarity of solutions are adjusted by addition of sucrose. Permeability ratios for the monovalent cations to Na (PX/PNa) are calculated as follows: PX/PNa=Eshift={RT/F}log(PX/PNa[X]O/[Na]O)
where B′=P′Ca/PNa and P′Ca=PCa/(1+e^EF/RT) and [Ca]O(1) and [Ca]O(2) refer to the two different calcium concentrations. Local perfusion of menthol is via a TC^2bip temperature controller. A Marlow temperature controller is used for the cooling ramps.

[4] = tested on: Non-transfected CHO cells; assay: Whole-cell voltage clamp of non-transfected CHO cells (control cells); format: cell-based, Chinese Hamster; conditions: temperatures >23° C.
Procedure: To investigate the membrane responses to cold and menthol, voltage clamp experiments are carried out on TRPM8 expressing cells which are prepared as described above. Cells are plated onto poly-D-lysine coated cover-slips for recording purposes and recordings undertaken 18-24 hours later. […] Series resistant compensation is 80% for all experiments, using 2-5 MΩ fire-polished pipettes. Recording solutions are as follows; pipette solution for all experiments is (mM) CsCl, 140; […] EGTA, 10; HEPES, 10; […] For menthol and cold activated currents the bath solution is (mM): NaCl, 140; KCl, 5; Glucose; 10, HEPES, 10; […] Current-voltage relationships are used to evaluate reversal potentials with voltage ramps from -100 to +60 mV (2 second duration). For the permeability studies for the monovalent ions the NaCl in a simplified bath solution (mM): NaCl, 140; Glucose; 10, HEPES, 10; […] MgCl2, 1, is substituted by either equimolar CsCl or KCl (titrated with CsOH or KOH). For calcium permeability estimates, the bath solutions contains (mM) NaCl, 100; Glucose, 10 mM; Hepes, 10 mM (titrated with NaOH) plus 1 or 30 mM CaCl2. Osmolarity of solutions are adjusted by addition of sucrose. Permeability ratios for the monovalent cations to Na (PX/PNa) are calculated as follows: […]={[…])

[5] = molecular target: T2, mouse TRPM8; assay: Fura-2 calcium imaging of TRPM8-expressing CHO cells; format: cell-based
Source text: Given the similarity of TRPM8 protein to TRPV family members and its unique expression pattern, the effects of heat, capsaicin, cold and menthol in mediating calcium influx are examined using transfected CHO-K1/FRT cells expressing TRPM8 protein and a fluorescent calcium imaging method as described in detail below.
To generate mouse TRPM8-expressing CHO cell lines, mouse TRPM8 cDNA are subcloned in pcDNA5 (Invitrogen), transfected into CHO-K1/FRT cells using Fugene 6 (Roche). The transfected cells are selected by growth in MEM medium containing […] hygromycin (Gibco BRL). Populations are frozen at early passage numbers and these stocks are used for further studies. Stable clones that express the mRNAs are identified by Northern blot analysis as well as Southern blotting to confirm integration site (not shown).
Calcium imaging experiments are performed essentially as previously described (see Savidge et al., Neuroscience, 102:177-184 (2001)). Briefly, cells are plated on glass coverslips and loaded with Fura-2 acetoxymethyl ester ([…]) and incubated for 30-60 minutes at room temperature in […] of pluronic acid (Molecular Probes, Eugene, Oreg.) in a HEPES-buffered saline (2 mM Ca 2+). Coverslips are placed in a laminar flow perfusion chamber (Warner Instrument Corp.) and constantly perfused with HEPES-buffered saline (2 mM Ca^2+) via a local perfusion pipette through which buffer and chilled solutions are also applied. Chilled stimulations consist of a linear decrease (˜1-1.5° C. sec^−1) in perfusate temperature from 33° C. to 10° C. Perfusate temperature is controlled by a regulated Peltier device and is monitored in the cell chamber by a miniature thermocouple. Alternatively, cells are plated on 24-well tissue culture plates, loaded with Fura-2 and application of solutions is performed with a 3 cc syringe over a period of 10 seconds. Images of Fura-2 loaded cells with the excitation wavelength alternating between […] are captured with a cooled CCD camera. Following subtraction of background fluorescence, the ratio of fluorescence intensity at the two wavelengths is calculated. Ratio levels in groups of 20-40 individual cells are analyzed using MetaFluor (Universal Imaging Corporation). All graphs are averaged responses from groups of 20-30 individual cells from representative single experiments. […] Hanks balanced salt solution (HBSS), phosphate buffered saline (PBS) and all cell culture reagents are obtained from Gibco BRL. Ruthenium red, capsaicin and menthol are obtained from Sigma.

**Q.** With Oc1cc2c(cc1O)CN(C(=S)NCCc1ccc(Cl)cc1)CCC2 [capsazepine] as the compound, how does the “amplitude of test heat-evoked current relative to the preceding response” value ([1]; 10 μM applied for 2 minutes prior to the test heat challenge, after 4-5 sensitizing heat steps, no-antagonist control 1.57±0.25) read?
**A.** 2.31±0.36 times the amplitude of the preceding response

**Q.** How did the “calcium response of non-transfected CHO cells” value [2] turn out when CC1CCC(C(C)C)C(O)C1 (stereo not shown) [menthol] was run?
**A.** completely insensitive; also recorded: no increase in [Ca^2+]i

**Q.** What about the “inward currents evoked in TRPM8-expressing CHO cells (FIG. 10A)” value ([3]; 1 mM, Vh=−60 mV, 25° C.) of the same compound?
**A.** Inward currents evoked

**Q.** And the “concentration-response relationship of evoked currents at 22° C. versus 35° C.” value ([3]; +60 mV, 0.1, 0.5, 1 and 10 mM)?
**A.** shifted to the left at the lower temperature

**Q.** What about the “Erev of the menthol activated current” value ([3]; CsCl pipette, NaCl-based bath solution, n=12) of the same compound?
**A.** −9.28±0.75 mV

**Q.** And the “currents evoked in TRPM8 expressing cells” value ([3]; temperatures above the threshold for cold activation (>23° C.))?
**A.** evokes rapidly activating currents

**Q.** What about the “currents evoked in non-transfected CHO cells” value [4] of the same compound?
**A.** not in non-transfected CHO cells

**Q.** What about the “calcium response of TRPM8 expressing cells upon lowering the temperature to 30° C.” value ([5]; 30° C., 10 μM (FIG. 7E)) of the same compound?
**A.** intracellular calcium levels increases; also recorded: marked increase in intracellular Ca^2+

**Q.** What about the “calcium response of TRPM8 expressing cells at 33° C.” value ([5]; 33° C., 10 μM (FIG. 7E)) of the same compound?
**A.** does not induce a calcium response; also recorded: does not elicit an influx of Ca^2+

**Q.** What about the “intracellular calcium (Fura-2 fluorescence) response of TRPM8 cells” value ([5]; cells incubated at 25° C., 10 and 100 μM) of the same compound?
**A.** increases significantly; also recorded: responds to menthol

**Q.** What about the “desensitization of TRPM8-expressing cells on repeated applications” value ([5]; repeated applications (FIG. 7E)) of the same compound?
**A.** do not appear to desensitize

**Q.** How did the “suppression of the temperature (cold) calcium response of TRPM8 expressing cells” value ([5]; 5 μM) turn out when N.N.N.N.N.N.N.N.N.N.N.N.N.N.[Cl-].[Cl-].[Cl-].[Cl-].[Cl-].[Cl-].[O-2].[O-2].[Ru+3].[Ru+3].[Ru+4] [ruthenium red] was run?
**A.** does not suppress the temperature response

**Q.** What about the “relative amplitude of the heat response (test heat-evoked current relative to the preceding response)” value ([1]; 1 μM applied for 2 minutes prior to the test heat challenge, after 4-5 sensitizing heat steps, no-antagonist control 1.57±0.25) of the same compound?
**A.** 0.34±0.03

**Q.** And the “effect on sensitization and heat response of TRPV3 (FIG. 4D)” value ([1]; 1 μM, repeated heat steps)?
**A.** attenuates the sensitization and inhibits the heat response

**Q.** Which results are given for COc1cc(CNC(=O)CCCC/C=C/C(C)C)ccc1O [Capsaicin, capsaicin]?
**A.** intracellular calcium response evoked in TRPM8 expressing cells ([5]; 10 μM): does not evoke a response; current response evoked in TRPV3-expressing cells ([1]; 1 μM, whole cell voltage clamp): does not evoke a response

From US7396910B2, “Transient receptor potential channel TRPV3 and its use” (IRM LLC, priority 2001, dated 2008)
